Test results from PubChem BioAssay (NCI).
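Following 48 hours of exposure in 96-well plates, responses at five concentrations were used to interpolate endpoints linearly. TGI: concentration producing complete growth inhibition.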

How the values were obtained:
Assay in all cases: inhibition of tumour cell growth, NCI panel, 48 h
MDA-N = system: MDA-N
786-0 renal = system: 786-0 renal
K-562 leukemia = system: K-562 leukemia
UO-31 renal = system: UO-31 renal
OVCAR-4 ovarian = system: OVCAR-4 ovarian
NCI-H226 lung = system: NCI-H226 lung
SF-539 CNS = system: SF-539 CNS
OVCAR-8 ovarian = system: OVCAR-8 ovarian
NCI-H522 lung = system: NCI-H522 lung
M14 melanoma = system: M14 melanoma
T-47D breast = system: T-47D breast
SR leukemia = system: SR leukemia
TK-10 renal = system: TK-10 renal
SW-620 colon = system: SW-620 colon
U251 CNS = system: U251 CNS
OVCAR-3 ovarian = system: OVCAR-3 ovarian
MDA-MB-435 = system: MDA-MB-435

SMILES	TGI (MDA-N) [µM]	TGI (786-0 renal) [µM]	TGI (K-562 leukemia) [µM]	TGI (UO-31 renal) [µM]	TGI (OVCAR-4 ovarian) [µM]	TGI (NCI-H226 lung) [µM]	TGI (SF-539 CNS) [µM]	TGI (OVCAR-8 ovarian) [µM]	TGI (NCI-H522 lung) [µM]	TGI (M14 melanoma) [µM]	TGI (T-47D breast) [µM]	TGI (SR leukemia) [µM]	TGI (TK-10 renal) [µM]	TGI (SW-620 colon) [µM]	TGI (U251 CNS) [µM]	TGI (OVCAR-3 ovarian) [µM]	TGI (MDA-MB-435) [µM]
Cc1ccc(-c2nc(N/N=C/C=C/c3ccccc3)c3ccccc3n2)cc1	> 100	> 100	> 100	> 100	> 100	> 100	> 100	> 100	> 100	> 100	> 100	> 100	38.7	> 100	> 100	> 100	> 100
Nc1ncnc2oc(C3OC(COC(=O)c4ccccc4)C(OC(=O)c4ccccc4)C3OC(=O)c3ccccc3)nc12 (centres undefined)	> 100	> 100	> 100	> 100	> 100	> 100	> 100	> 100	> 100	> 100	> 100	> 100	> 100	> 100	> 100	> 100	> 100
Clc1cc(Cl)cc(N=C/C=C/Nc2cc(Cl)cc(Cl)c2)c1	38.6	31.4	66.2	71.7	32.7	32.8	58.9	42.5	34.1	47.6	> 100	86.4	87	37.6	33.5	27.7	35.9
CCc1c(C)c(C#N)c(=S)n(C2OC(COC(C)=O)C(OC(C)=O)C(OC(C)=O)C2OC(C)=O)c1-c1ccccc1 (centres undefined)	> 31.6	> 31.6	47.2	> 31.6	> 31.6	> 31.6	> 31.6	> 31.6	> 31.6	> 31.6	> 31.6	> 31.6	> 31.6	> 100	31	> 31.6	> 31.6
CC1=NC(=Cc2ccccc2O)C(=O)N1n1c(-c2ccccc2)nc2ccccc2c1=O	> 100	> 100	> 100	> 100	> 100	> 100	87.3	> 100	> 100	> 100	> 100	> 100	> 100	> 100	> 100	> 100	> 100
CCOC(=O)C1(C(=O)OCC)[C@@H](c2ccccc2)C2=NO[C@@H]3CCC[C@H]1[C@H]23	64.6	> 100	> 100	> 100	> 100	> 100	> 100	> 100	> 100	> 100	> 100	> 100	> 100	> 100	> 100	> 100	53.6
CCOC(=O)C(C(=O)OCC)=C1NC2(c3ccccc3Nc3ccccc32)C(C#N)S1 (centres undefined)	36.3	23.8	28.4	25.3	18.5	26.2	23	30	29.2	19.8	25.5	6.81	38.6	51.6	24.5	4.78	20.6
CCOC(=O)NNC(=O)NCc1cccc(CNC(=O)NNC(=O)OCC)c1	> 100	> 100	> 100	> 100	> 100	> 100	> 100	> 100	> 100	> 100	> 100	> 100	> 100	> 100	> 100	> 100	> 100
CCOC(=O)N1N=C(/C(C)=N/OC)C(C)S1=O (centres undefined)	> 100	> 100	> 100	> 100	> 100	> 100	> 100	> 100	> 100	> 100	> 100	> 100	> 100	> 100	> 100	> 100	> 100
CC(=O)NC1C(OCc2ccccc2)OC(CO)C(O)C1OC(C)C(=O)NC(C)C(=O)NC(CCC(=O)NCCCCNc1c2ccccc2nc2cccc([N+](=O)[O-])c12)C(N)=O (centres undefined)	0.0532	0.146	12.5	0.339	0.645	0.43	0.264	0.166	0.286	12.5	0.961	0.0539	0.128	0.0785	0.303	1.64	0.105
CC1(c2nc3ccccc3[nH]2)CCC(C(=O)O)C(C)(C)O1 (centres undefined)	> 100	> 100	> 100	> 100	> 100	> 100	> 100	> 100	> 100	> 100	> 100	> 100	> 100	> 100	> 100	> 100	> 100
c1cc2nnc1SCCCSc1ccc(nn1)SCCCS2	> 100	> 100	> 100	> 100	> 100	> 94.1	> 93.9	> 100	> 100	> 57.6	> 100	> 100	98.8	> 100	> 86.9	> 74.1	> 100
CSC(=S)Nc1cccc(C)n1	> 100	> 100	> 100	> 100	> 100	> 100	> 100	> 100	> 100	> 100	> 100	> 100	> 100	> 100	> 100	> 100	> 100
CCOC(=O)C(=CNc1ccc(NC2=NCC(C)S2)cc1)C(=O)OCC (centres undefined)	> 100	84.6	4.69	73	> 51.8	> 100	> 100	> 100	36.8	> 90.7	> 84.5	> 69.8	> 100	> 100	> 100	60.1	60.2
COc1ccc(N2C(=O)/C(=C\c3cc(OC)c(OC)c(OC)c3)SC2c2ccccc2)cc1 (centres undefined)	> 100	> 100	> 100	> 100	> 100	> 100	> 100	> 100	> 100	> 100	> 100	> 100	> 100	> 100	> 100	> 100	> 100
O=c1c2cc(S(=O)(=O)O)ccc2nc(COc2ccc(Oc3ccc(Cl)cc3Cl)cc2)n1-c1ccc(Oc2ccc(Cl)cc2)cc1Cl	59.2	40.7	83.1	27	73.6	48.9	32.3	44.3	47.8	39.9	> 100	46.5	58.8	50.4	30.1	36.9	39.6
C[N+](C)(C)c1ncnc2c1ncn2C1CC(O)C(CO)O1 (centres undefined)	> 100	> 100	> 100	> 100	> 100	> 100	> 100	> 100	> 100	> 100	> 100	> 100	> 100	> 100	> 100	> 100	> 100
CCOC(=O)c1c(C)n(-c2ccc(Cl)cc2)c2c1cc(O)c1[nH]c3c(c12)CCCC3	> 100	> 100	> 100	> 100	> 100	> 100	> 100	> 100	60.4	> 100	> 100	43.3	> 100	> 100	> 100	> 100	> 100
O=[N+]([O-])c1ccc(C(=S)Nc2ccccc2)o1	9.53	6.19	6.28	5.73	6.47	15	4.58	10.6	3.11	14	95.1	10	14.1	3.82	3.05	6.38	7.63
O=c1[nH]nc(Cc2ccccc2)n1C1CCCC1	> 100	> 100	> 100	> 100	> 100	> 100	> 100	> 100	> 100	> 100	> 100	> 100	> 100	> 100	> 100	> 100	> 100
CCOC(=O)c1sc2nc(SC)nc3c2c1NCN3c1ccc2c(c1)OCO2	> 100	15	> 100	69.8	26.4	> 100	51.1	20.1	98.1	71.2	> 100	> 100	43.7	45.1	23.1	50	52.7
Oc1[nH]c2ccccc2c1N=NC(=S)Nc1ccccc1Cl	> 100	20.8	81.4	81.6	63.7	53	7.86	17.9	> 100	14.9	> 100	1.16	10.3	40.3	55	37.6	57.5
COc1cc2c(c(O)c1OC)C(=O)[C@@H]1CCC(=O)N1C2	> 100	> 100	> 100	> 100	> 100	> 100	> 100	> 100	> 100	> 100	> 100	> 100	> 100	> 100	> 100	> 100	> 100
Cc1cn(CCCCC2=NCCCN2)c(=O)[nH]c1=O	> 100	> 30.1	> 37.2	> 31	> 40.7	> 81.3	> 22	> 28.2	> 46.3	> 32.4	> 23.9	> 41	> 36.6	> 37	> 46.4	> 33.1	> 33.8
CCOP1(=O)CC(C)=C(Cl)C(O)C1 (centres undefined)	> 100	> 100	> 100	> 100	> 100	> 100	> 100	> 100	> 100	> 100	> 100	> 100	> 100	> 100	> 100	> 100	> 100
COc1ccc(OC)c(N(CN2C(=O)CCC2C(=O)O)C(C)=O)c1 (centres undefined)	> 100	> 100	> 100	> 100	> 100	> 100	> 100	> 100	> 100	> 100	> 100	> 100	> 100	> 100	> 100	> 100	> 100
COC(=O)[C@]1(NC(=O)c2ccccc2)C[C@H]1C=O	> 100	> 100	> 100	> 100	> 100	> 100	> 100	> 100	> 100	> 100	> 100	53.9	> 100	> 100	> 100	> 100	> 100
